SMILES strings stand for the structures. Where only a bound is given, the exact number is not on record here.

For one test, the target named is T1, Histone Deacetylase 4 (HDAC4) catalytic domain (Homo sapiens, UniProt P56524).
T1 construct: 6x histidine tag (C); purchased BioFocus
T1 sequence (P56524 648-1032): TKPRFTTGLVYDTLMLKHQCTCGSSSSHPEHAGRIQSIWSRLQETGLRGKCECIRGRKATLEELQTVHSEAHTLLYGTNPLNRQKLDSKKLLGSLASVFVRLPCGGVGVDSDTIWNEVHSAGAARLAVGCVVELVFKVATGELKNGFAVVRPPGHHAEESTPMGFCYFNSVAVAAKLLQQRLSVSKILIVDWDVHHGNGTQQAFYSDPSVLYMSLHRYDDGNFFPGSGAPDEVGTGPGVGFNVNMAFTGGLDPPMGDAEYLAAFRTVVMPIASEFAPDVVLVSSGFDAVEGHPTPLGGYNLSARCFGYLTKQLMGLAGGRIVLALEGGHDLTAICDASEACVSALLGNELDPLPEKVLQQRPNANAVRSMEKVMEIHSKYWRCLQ
Description: Inhibition of HDAC4 catalytic domain enzymatic activity, fluorogenic substrate Boc-Lys(Tfa)-AMC. Format: biochemical.
Settings: not given
From the text: The potency of compounds is quantified by measuring the Histone Deacetylase 4 (HDAC4) catalytic domain enzymatic activity using the fluorogenic substrate, Boc-Lys(Tfa)-AMC. The substrate is deacetylated to Boc-Lys-AMC by HDAC4. Cleavage by trypsin results in the release of the fluorophore AMC from the deacetylated substrate. The fluorescence of the sample is directly related to the histone deacetylase activity in the sample.
Serial dilutions of the compounds being tested and control reference compound (1-(5-(3-((4-(1,3,4-oxadiazol-2-yl)phenoxy)methyl)-1,2,4-oxadiazol-5-yl)thiophen-2-yl)-2,2,2-trifluoroethanone) are made by first resuspending the lyophilized compound to a final concentration of 10 mM in 100% dimethyl sulfoxide (DMSO). Stocks of 60 μL aliquots of the 10 mM compound in DMSO are prepared and stored at −20° C. From one stock aliquot of each compound to be tested and the reference compound, a 16-point serial dilution is prepared according to Table 1 using a 125 μL 16-channel Matrix multi-channel pipette (Matrix Technologies Ltd).
2 μL (200×) of each diluted solution and each control (full activity: 100% DMSO alone or full inhibition 1 mM) is stamped into V-bottomed polypropylene 384-well compound plates using either the Bravo (384-well head from Agilent) or 12.5 μL 16-channel Matrix multi-channel pipette (Matrix Technologies Ltd).
A working solution of enzyme is prepared from a 500 μg/mL stock aliquot of HDAC4 catalytic domain (thawed on ice) diluted to 0.2 μg/mL with assay buffer (50 mM Tris-HCl, 137 mM NaCl, 2.7 mM KCl, and 1 mM MgCl2 at pH 8 and equilibrated to room temperature) just prior to the addition of the enzyme to the assay.
5× (50 μM) substrate is prepared just prior to the addition to the assay. A 1 mM substrate stock is made by diluting a 100 mM Boc-Lys(Tfa)-AMC in DMSO solution 1:100 by adding it drop-wise to assay buffer (equilibrated to room temperature) while vortexing at slow speed to prevent precipitation. The 5× substrate is prepared by diluting the 1 mM substrate solution 1:20 by adding it drop-wise to assay buffer (equilibrated to room temperature) while vortexing at slow speed to prevent precipitation.
3× (30 μM) Developer/Stop Solution is prepared just prior to addition to the plate by diluting a stock solution of 10 mM reference compound 1:333 in 25 mg/mL trypsin (PAA Laboratories Ltd.) equilibrated to room temperature.
5 μL of each solution of 1:20 diluted compound from above is transferred to a clear bottomed, black, 384-well assay plate using the Bravo or the Janus (384-well MDT head from Perkin Elmer). Using a 16-channel Matrix multi-channel pipette, 35 μL of the working solution of HDAC4 catalytic domain enzyme (0.2 μg/mL in assay buffer) is transferred to the assay plate. The assay is then started by adding 10 μL of 5× (50 μM) substrate to the assay plates using either the Bravo, Janus or 16-channel Matrix multi-channel pipette. The assay plate is then shaken for two minutes on an orbital shaker at 900 rpm (rotations per minute). Next the plate is incubated for 15 minutes at 37° C. The reaction is stopped by adding 25 μL of 3× (30 μM) developer/stop solution to the assay plates using either the Bravo, Janus or a 16-channel Matrix multi-channel pipette. Assay plates are then shaken for 5 minutes on an orbital shaker at 1200 rpm. Next, the assay plates are incubated at 37° C. for 1 hour in a tissue culture incubator. Finally, the fluorescence is measured (Excitation: 355 nm, Emission: 460 nm) using PerkinElmer EnVision in top read mode.
As for `CN1CC=C(c2cc(C(=O)NO)n(-c3ccccc3)n2)CC1` [Example 11, N-Hydroxy-3-(1-methyl-3,6-dihydro-2H-pyridin-4-yl)-1-phenyl-1H-pyrazole-5-carboxamide], the IC50 (usually the concentration that gives 50% inhibition) is 0.24 µM.

As for `Cc1ccccc1-c1cc(C(=O)NO)n(-c2ccccc2)c1` [Example 15, N-Hydroxy-4-(2-methylphenyl)-1-phenyl-pyrrole-2-carboxamide], half-maximal inhibition (IC50) required 1.4 µM.

Consider `Cc1ccccc1-c1cc(C(=O)NO)n(-c2ccccc2)n1` [Example 3, N-Hydroxy-3-(2-methylphenyl)-1-phenyl-1H-pyrazole-5-carboxamide], for which the IC50 is 0.94 µM. The IC50 values of the last two compounds are within 1.5-fold of each other.

`Cc1ncccc1-c1cc(C(=O)NO)n(-c2ccccc2)n1` [Example 9, N-Hydroxy-3-(2-methyl-3-pyridyl)-1-phenyl-1H-pyrazole-5-carboxamide]: the IC50 came out at 1.4 µM.

Regarding `O=C(NO)c1cc(C2=CCCC2)nn1-c1ccccc1` [Example 6, N-Hydroxy-3-(cyclopenten-1-yl)-1-phenyl-1H-pyrazole-5-carboxamide], the IC50 is 2.7 µM. This IC50 is about 1.9-fold higher than that of the compound before.

`Cc1ccccc1-c1cc(C(=O)NO)n(-c2cccc(F)c2C)n1` [Example 10, N-hydroxy-1-(3-fluoro-2-methyl-phenyl)-3-(2-methyl-phenyl)-1H-pyrazole-5-carboxamide] displayed an IC50 of 0.75 µM.

As to `O=C(NO)c1cc(Cc2ccccc2)nn1-c1ccccc1` [Example 4, N-Hydroxy-3-benzyl-1-phenyl-1H-pyrazole-5-carboxamide], the IC50 was found to be 0.96 µM.

With `O=C(NO)c1cc(-c2cncc(Cl)c2)nn1-c1ccccc1` [Example 8], inhibition was half-maximal at 4.9 µM (IC50).

In the case of `O=C(NO)c1cc(OCc2ccccc2)nn1-c1ccccc1` [Example 13, N-Hydroxy-3-benzyloxy-1-phenyl-1H-pyrazole-5-carboxamide], the IC50 was 27.5 µM.

Turning to `O=C(NO)c1cc(-c2ccccc2Cl)nn1-c1ccccc1` [Example 5, N-Hydroxy-3-(2-chlorophenyl)-1-phenyl-1H-pyrazole-5-carboxamide], the IC50 turned out to be 0.38 µM.

In turn, `O=C(NO)c1cc(-c2ccccc2Cl)cn1-c1ccccc1` [Example 16, N-Hydroxy-4-(2-chlorophenyl)-1-phenyl-pyrrole-2-carboxamide] gave an IC50 of 0.71 µM.

As for `O=C(NO)c1cc(-c2ccccc2)nn1-c1ccccc1` [Example 1, N-Hydroxy-1,3-diphenylpyrazole-5-carboxamide], the IC50 was found to be 10.3 µM. This IC50 is about 15-fold higher than that of the compound before.

Compound `O=C(NO)c1cc(N2CCCC2)nn1-c1ccccc1` [Example 14, N-Hydroxy-1-phenyl-3-pyrrolidin-1-yl-1H-pyrazole-5-carboxamide] came in with an IC50 of 9.9 µM. The IC50 values of the last two compounds are within 1.5-fold of each other.

The compound `O=C(NO)c1cc(-c2cccc3ccsc23)nn1-c1ccccc1` [Example 2, N-Hydroxy-3-(benzothiophen-7-yl)-1-phenyl-1H-pyrazole-5-carboxamide] gave an IC50 of 0.12 µM.

With `O=C(NO)c1cc(C2CCCC2)nn1-c1ccccc1` [Example 7, N-Hydroxy-3-cyclopentyl-1-phenyl-1H-pyrazole-5-carboxamide], half-maximal inhibition (IC50) required 1.8 µM. This IC50 lies about 15-fold higher than the previous one.

`Cc1ccccc1-c1cc(C(=O)NO)n(-c2ccccc2C)n1` [Example 12, N-Hydroxy-1,3-bis(2-methylphenyl)-1H-pyrazole-5-carboxamide] gave an IC50 of 2.4 µM.

For a further test, the system named is cellular histone deacetylase enzymatic activity in Jurkat E6-1 cells. The test is described as follows: Inhibition of cellular HDAC activity in Jurkat E6-1 cells, fluorogenic substrate Boc-Lys(Tfa)-AMC. The conditions noted are these: Homo sapiens. Type of test: cell-based. The protocol: The potency of the compounds is quantified by measuring the cellular histone deacetylase enzymatic activity using the fluorogenic substrate, Boc-Lys(Tfa)-AMC. After penetration in Jurkat E6-1 cells, the substrate is deacetylated to Boc-Lys-AMC. After cell lysis and cleavage by trypsin, the fluorophore AMC is released from the deacetylated substrate only. The fluorescence of the sample is directly related to the histone deacetylase activity in the sample.
Jurkat E6.1 cells are cultured according to standard cell culture protocols in Jurkat E6.1 Growth Media (RPMI without phenol red, 10% FBS, 10 mM HEPES, and 1 mM Sodium Pyruvate). Jurkat E6.1 cells are counted using a Coulter Counter and resuspended in Jurkat E6.1 growth media at a concentration of 75,000 cells/35 μL. 35 μL or 75,000 cells is seeded into Greiner microtitre assay plates. The plates are then incubated at 37° C. and 5% CO2 while other assay components are being prepared.
Serial dilutions of the compounds being tested and control reference compound (1-(5-(3-((4-(1,3,4-oxadiazol-2-yl)phenoxy)methyl)-1,2,4-oxadiazol-5-yl)thiophen-2-yl)-2,2,2-trifluoroethanone) are made by first resuspending the lyophilized compound to a final concentration of 10 mM in 100% DMSO. Stocks of 70 μL aliquots of the 10 mM compound in DMSO are prepared and stored at −20° C. From one stock aliquot of each compound to be tested and the reference compound, a 16-point serial dilution is prepared according to Table 1 using a 125 μL 16-channel Matrix multi-channel pipette.
2 μL (200×) of each diluted solution and each control (full activity: 100% DMSO alone or full inhibition 1 mM) is stamped into V-bottom polypropylene 384-well compound plates using either the Bravo, Janus, or 12.5 μL 16-channel Matrix multi-channel pipette. Each well with the 200× compound solution is diluted 1:20 by the addition of 38 μL Jurkat assay buffer+DMSO (9.5% DMSO, RPMI without phenol red, 0.09% FBS, 9 mM Hepes, and 0.9 mM Sodium Pyruvate equilibrated to room temperature)
5× (500 μM) substrate is prepared just prior to the addition to the assay. The 5× substrate is prepared by diluting a 100 mM Boc-Lys(Tfa)-AMC in DMSO solution 1:200 by adding it drop-wise to Jurkat assay medium (RPMI without phenol red, 0.1% FBS, 10 mM Hepes, and 1 mM Sodium Pyruvate equilibrated to 37° C.) while vortexing at slow speed to prevent precipitation.
10 mL of 3× lysis buffer is prepared with 8.8 ml of 3× stock lysis buffer (50 mM Tris-HCl, pH 8.0, 137 mM NaCl, 2.7 mM KCl, 1 mM MgCl2, 1% Nonidet P40 Substitute equilibrated to room temperature) and 1.2 mL of 3 mg/mL Trypsin equilibrated to room temperature.
5 μL of each solution of 1:20 diluted compound from above is transferred to the Greiner microtitre assay plates with 75,000 cells/well using the Bravo. Cells are then incubated for 2 hours at 37° C. and 5% CO2. The assay is then started by adding 10 μL of 5× (500 μM) substrate to the assay plate using either the Bravo or 16-channel Matrix multi-channel pipette. The cells are then incubated for 3 hours at 37° C. and 5% CO2. Next, 25 μL of 3× lysis buffer is added to each well using either the 125 μL 16 channel pipette or the Bravo. The assay plate is then incubated overnight (15-16 hours) at 37° C. and 5% CO2. The following day, the plates are shaken on an orbital shaker for 1 minute at 900 rpm. Finally the top read fluorescence (Excitation: 355 nm, Emission: 460 nm) is measured using PerkinElmer EnVision.
`CN1CC=C(c2cc(C(=O)NO)n(-c3ccccc3)n2)CC1` [Example 11, N-Hydroxy-3-(1-methyl-3,6-dihydro-2H-pyridin-4-yl)-1-phenyl-1H-pyrazole-5-carboxamide] returned an IC50 of 4.07 µM.

In turn, `Cc1ccccc1-c1cc(C(=O)NO)n(-c2ccccc2)c1` [Example 15, N-Hydroxy-4-(2-methylphenyl)-1-phenyl-pyrrole-2-carboxamide] came in with an IC50 of 13.8 µM.

Regarding `Cc1ccccc1-c1cc(C(=O)NO)n(-c2ccccc2)n1` [Example 3, N-Hydroxy-3-(2-methylphenyl)-1-phenyl-1H-pyrazole-5-carboxamide], the IC50 was 7.3 µM.

For the compound `Cc1ncccc1-c1cc(C(=O)NO)n(-c2ccccc2)n1` [Example 9, N-Hydroxy-3-(2-methyl-3-pyridyl)-1-phenyl-1H-pyrazole-5-carboxamide], the IC50 was determined as 6.9 µM. The IC50 values of the last two compounds are within 1.5-fold of each other.

For `O=C(NO)c1cc(C2=CCCC2)nn1-c1ccccc1` [Example 6, N-Hydroxy-3-(cyclopenten-1-yl)-1-phenyl-1H-pyrazole-5-carboxamide], the IC50 came out at 20.3 µM.

`Cc1ccccc1-c1cc(C(=O)NO)n(-c2cccc(F)c2C)n1` [Example 10, N-hydroxy-1-(3-fluoro-2-methyl-phenyl)-3-(2-methyl-phenyl)-1H-pyrazole-5-carboxamide] gave an IC50 of 5.68 µM.

On to `O=C(NO)c1cc(Cc2ccccc2)nn1-c1ccccc1` [Example 4, N-Hydroxy-3-benzyl-1-phenyl-1H-pyrazole-5-carboxamide], for which half-maximal inhibition (IC50) was put at 10.2 µM.

Compound `O=C(NO)c1cc(-c2cncc(Cl)c2)nn1-c1ccccc1` [Example 8] displayed an IC50 of 41.6 µM.

Consider `O=C(NO)c1cc(OCc2ccccc2)nn1-c1ccccc1` [Example 13, N-Hydroxy-3-benzyloxy-1-phenyl-1H-pyrazole-5-carboxamide], for which the IC50 was > 50 µM.

In turn, `O=C(NO)c1cc(-c2ccccc2Cl)nn1-c1ccccc1` [Example 5, N-Hydroxy-3-(2-chlorophenyl)-1-phenyl-1H-pyrazole-5-carboxamide] yielded an IC50 of 2.82 µM.

`O=C(NO)c1cc(-c2ccccc2Cl)cn1-c1ccccc1` [Example 16, N-Hydroxy-4-(2-chlorophenyl)-1-phenyl-pyrrole-2-carboxamide] displayed an IC50 of 6.17 µM.

`O=C(NO)c1cc(-c2ccccc2)nn1-c1ccccc1` [Example 1, N-Hydroxy-1,3-diphenylpyrazole-5-carboxamide] returned an IC50 of 24.2 µM. Against the preceding compound, the IC50 is about 3.9-fold higher.

In the case of `O=C(NO)c1cc(N2CCCC2)nn1-c1ccccc1` [Example 14, N-Hydroxy-1-phenyl-3-pyrrolidin-1-yl-1H-pyrazole-5-carboxamide], the IC50 was 46.2 µM.

The compound `O=C(NO)c1cc(-c2cccc3ccsc23)nn1-c1ccccc1` [Example 2, N-Hydroxy-3-(benzothiophen-7-yl)-1-phenyl-1H-pyrazole-5-carboxamide] returned an IC50 of 2.72 µM.

`O=C(NO)c1cc(C2CCCC2)nn1-c1ccccc1` [Example 7, N-Hydroxy-3-cyclopentyl-1-phenyl-1H-pyrazole-5-carboxamide] showed an IC50 of 12.1 µM.

The compound `Cc1ccccc1-c1cc(C(=O)NO)n(-c2ccccc2C)n1` [Example 12, N-Hydroxy-1,3-bis(2-methylphenyl)-1H-pyrazole-5-carboxamide] showed an IC50 of 16 µM.
